Results as given in patent publication US11603355B2, “Charged ion channel blockers and methods for use” (Nocion Therapeutics, Inc., priority 2019, dated 2023).
Where a name gives a salt, the structure may show the parent alone.

Legend:
[1] = biological target: T1, NaV1.7 (Homo sapiens, UniProt Q15858); experiment: Automated patch clamp (Qube 384), external block of NaV1.7; assay type: cell-based; conditions: IC50, compound in external solution, HEK293 cells, read-out: Nav1.7 Extracellular Inhibition
T1 construct: expressed in transfected cells; host or cells: HEK293 (tetracycline-inducible)
T1 sequence (Q15858 whole entry): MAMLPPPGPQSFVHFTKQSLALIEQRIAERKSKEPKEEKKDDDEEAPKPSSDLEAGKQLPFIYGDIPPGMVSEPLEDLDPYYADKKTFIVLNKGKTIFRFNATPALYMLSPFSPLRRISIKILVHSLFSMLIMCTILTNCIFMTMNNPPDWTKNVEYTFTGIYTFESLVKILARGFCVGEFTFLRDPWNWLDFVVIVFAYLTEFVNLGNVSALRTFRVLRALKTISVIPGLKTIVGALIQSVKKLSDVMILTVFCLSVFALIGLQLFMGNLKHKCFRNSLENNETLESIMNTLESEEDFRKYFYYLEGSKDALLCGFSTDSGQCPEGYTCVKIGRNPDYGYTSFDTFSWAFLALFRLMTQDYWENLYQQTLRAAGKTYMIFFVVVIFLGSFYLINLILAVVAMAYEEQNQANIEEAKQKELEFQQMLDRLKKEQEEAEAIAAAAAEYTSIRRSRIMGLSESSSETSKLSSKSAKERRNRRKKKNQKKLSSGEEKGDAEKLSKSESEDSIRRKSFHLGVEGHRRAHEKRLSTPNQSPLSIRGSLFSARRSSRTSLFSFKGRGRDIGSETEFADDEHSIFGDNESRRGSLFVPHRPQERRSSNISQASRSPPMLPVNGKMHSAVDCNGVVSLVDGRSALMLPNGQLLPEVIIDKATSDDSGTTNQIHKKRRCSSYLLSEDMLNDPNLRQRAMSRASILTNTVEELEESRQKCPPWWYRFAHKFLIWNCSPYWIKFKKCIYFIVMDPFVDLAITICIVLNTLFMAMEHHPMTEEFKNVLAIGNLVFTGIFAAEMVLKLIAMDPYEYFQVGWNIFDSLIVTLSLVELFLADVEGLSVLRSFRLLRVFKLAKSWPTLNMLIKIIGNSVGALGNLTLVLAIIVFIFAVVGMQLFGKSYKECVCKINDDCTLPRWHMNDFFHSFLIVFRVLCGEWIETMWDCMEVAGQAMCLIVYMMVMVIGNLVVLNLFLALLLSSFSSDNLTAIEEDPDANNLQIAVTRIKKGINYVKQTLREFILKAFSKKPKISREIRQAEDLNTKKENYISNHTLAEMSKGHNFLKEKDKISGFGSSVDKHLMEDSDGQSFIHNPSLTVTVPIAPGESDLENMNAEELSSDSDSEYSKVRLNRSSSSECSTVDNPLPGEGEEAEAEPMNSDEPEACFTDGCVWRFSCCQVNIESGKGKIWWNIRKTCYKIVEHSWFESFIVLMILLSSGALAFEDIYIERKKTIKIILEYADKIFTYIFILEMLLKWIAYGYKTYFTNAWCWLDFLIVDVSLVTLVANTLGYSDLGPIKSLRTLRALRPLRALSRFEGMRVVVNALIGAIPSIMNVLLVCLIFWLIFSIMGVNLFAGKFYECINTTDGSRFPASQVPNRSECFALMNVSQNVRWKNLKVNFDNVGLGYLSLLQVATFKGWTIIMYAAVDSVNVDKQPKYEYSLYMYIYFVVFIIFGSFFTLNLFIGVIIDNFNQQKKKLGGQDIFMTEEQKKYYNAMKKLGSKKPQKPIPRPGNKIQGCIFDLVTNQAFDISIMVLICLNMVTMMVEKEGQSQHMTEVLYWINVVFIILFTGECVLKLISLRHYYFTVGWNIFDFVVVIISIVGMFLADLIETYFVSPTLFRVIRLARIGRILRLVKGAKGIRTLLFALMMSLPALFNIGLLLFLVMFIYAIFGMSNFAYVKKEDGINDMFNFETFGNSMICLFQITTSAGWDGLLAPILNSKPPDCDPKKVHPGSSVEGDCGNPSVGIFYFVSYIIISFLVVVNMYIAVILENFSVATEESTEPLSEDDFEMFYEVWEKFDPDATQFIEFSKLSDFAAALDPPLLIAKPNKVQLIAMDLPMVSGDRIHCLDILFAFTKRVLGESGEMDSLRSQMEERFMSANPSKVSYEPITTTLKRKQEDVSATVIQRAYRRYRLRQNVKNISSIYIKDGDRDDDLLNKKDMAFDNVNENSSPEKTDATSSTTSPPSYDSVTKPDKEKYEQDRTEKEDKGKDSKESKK
Description: (§1) NaV1.7 was expressed in HEK293 cells upon induction with tetracycline. Cells were cultured in DMEM containing 10% dialyzed Fetal Bovine Serum (VWR, Radnor, Pa.), 1% Glutamax (VWR, Radnor, Pa.), 1% Penicillin-Streptomycin (VWR, Radnor, Pa.), 100 mg/L Hygromycin (Thermo Fisher Scientific, Waltham, Mass. and 5 mg/L Blasticidin (Alfa Aesar, Haverhill, Mass.). Cells were grown and maintained at 37° C. in a humidified environment containing 10% CO2 in air. Cells were detached from the culture flask for passage and harvested using 0.05% Trypsin-EDTA (Thermo Fisher Scientific, Waltham, Mass.). To induce NaV1.7, cells were induced with tetracycline (0.1-1 μg/mL, IBI Scientific, Peosta, Iowa) the day before recording.
(§2) Before experiments, cells were washed with DPBS (VWR, Radnor, Pa.), digested with Detachin (VWR Radnor, Pa.) and then triturated 10 times in CHO Serum-Free Media (VWR Radnor, Pa.) to resuspend the cells and to break apart cell aggregates. Cells were counted and the final concentration was set at 2-5 million cells per mL.
(§3) The intracellular solution contained the following: 140 mM CsF, 1 mM/5 mM EGTA/CsOH, 10 mM HEPES, 10 mM NaCl, adjusted to pH 7.3 with CsOH, and osmolality to 320 with OSM solution. The external solution contained the following: 145 mM NaCl, 4 mM KCl, 1 mM MgCl2, 2 mM CaCl2), 10 mM HEPES, 10 mM Glucose, adjusted to pH 7.4 with CsOH and osmolality to 305 with OSM solution. The OSM solution was a normal Ringer solution containing (in mM) NaCl 155, HEPES 10, sucrose, KCl 3.5, CaCl2) 1.5, MgCl2 1 adjusted to pH 7.4 with NaOH. All chemicals are from Sigma-Aldrich, St. Louis, Mo. In order to test the degree of internal block by test compounds, the compounds were dissolved in internal solution at the indicated test concentration. […] In order to test the degree of external block by test compounds the compounds were dissolved in external solution at the indicated test concentration.
(§4) Automated Patch Clamps were performed on Qube 384 (Sophion Bioscience, Woburn Mass.) with multihole Qchips at a temperature setting of 22 degrees. The whole cells configuration was formed with default Qube seal and break-in parameter. The membrane potential was held at −100 mV before the voltage protocol began. Two voltage protocols were followed.
(§5) Step 1: Cells were held at −100 mV with a depolarized pulse to −20 mV for 10 ms, the interval was set at 5 s. Currents were corrected by default leak subtraction from every pulse. The duration was set at 5 mins.
(§6) Step 2: Cells were held at −100 mV with a depolarized pulse to −20 mV for 10 ms. The frequency was 5 Hz. Currents were corrected by leak subtraction calculated before step 2. The duration was set at 4 mins.
After Step 2, the external solution was changed with solutions containing test compounds. Qchips were held at −100 mV without pulsing. The total solution switching time was 8 minutes. After the external solution exchange, cells were recorded using the same procedure as step 2 for 10 minutes.
Data analysis was performed by Sophion Analyzer. Data were corrected with control cells (Non-Drug). The IC50 data were plotted with DR-plots/Hill function (a dose-response plot with a Hill fit). Representative examples of the invention were tested for extracellular inhibition of NaV 1.7 in the automated patch clamp assay. Activity Range is reported as IC50: “++++” ([…], “+++” (1-3 μM), “++” ([…]) or “+” (>10 μM). The results are presented below.

[2] = biological target: T1, NaV1.7; experiment: Automated patch clamp (Qube 384), internal block of NaV1.7; assay type: cell-based; conditions: IC50, compound in internal solution, HEK293 cells, read-out: Nav1.7 Intracellular Inhibition
Description: as §1, §2, §3, §4, §5, §6
After Step 2, the Qchip was removed from the recording chamber. The internal solution was changed with solutions containing test compounds. Qchips were held at −100 mV without pulsing after being replaced in the recording chamber. The total solution switching time was 8 minutes. After the internal solution exchange, Cells were recorded and step 2 for repeated for 10 minutes.
Data analysis was performed by Sophion Analyzer. Cells were filtered with minimum 50 MOhm seal resistance and minimum 5 nA starting current. The rundown of the currents was corrected with control cells (Non-Drug). The remaining was calculated by averaging last 3 points in the end of experiments. The base line was calculated as the average of last 3 points of Step 2.
IC50 curves were plotted with DR-plots/Hill function (a dose-response plot with a Hill fit).
Representative examples of the invention were tested for intracellular inhibition of NaV 1.7 in the automated patch clamp assay. Activity Range is reported as IC50: “++++” (<0.3 μM), “+++” (0.3-1 μM), “++” (1-3 μM) or “+” (3-10 μM).

[3] = PAMPA membrane permeability assay; assay type: in vitro ADME; conditions: permeability coefficient, pH 7.4 buffer, GIT lipid, 4 hours incubation
Description: The PAMPA assay (pION, Inc., Woburn Mass.) was used to determine the ability of compounds of the invention to cross an artificial lipid membrane by passive diffusion. Test compounds were dissolved in DMSO (10 mM) and diluted 200-fold in buffer (pION Inc., pH 7.4) to provide 50 uM stock solutions. Buffer (150 μL) was added to a UV blank plate and stock solutions (150 μL) were transferred to a UV reference plate. The blank and reference spectrum were read using a spectrophotometer. Stock solutions (200 μL) were added to the donor plate of the PAMPA sandwich plate and an accept plate painted with GIT lipid (pION Inc, 5) was placed on top. Buffer (200 μL) was added to the acceptor plate and the PAMPA sandwich plate was incubated for 4 hours. Aliquots (150 μL) from the acceptor plate were added to a UV plate and read as acceptor spectrum. Aliquots (150 μL) of the donor solutions were added to a UV analysis plate and read as donor spectrum. The permeability coefficient of test compounds was calculated using PAMPA Explorer™ software (version 3.5.0.4) based on the AUC of the reference plate, the donor plate, and the acceptor plate.
The PAMPA permeability results (10^−6 cm/s) of representative compounds are reported as “+” (<0.1 10^−6 cm/s), “++” (0.1-2.0 10^−6 cm/s), “+++” (2.0-10.010^−6 cm/s) or “++++” (>10.0 10^−6 cm/s).

Row | Structure (SMILES) | IC50 [1] [µM] | IC50 [2] [µM] | PAMPA (10^−6 cm/s) [3]
1 | Cc1cccc(C)c1NC(=O)C[N+]1(Cc2ccccc2)CCCC1 [Compound 5] | > 10 | 1 to 3 | –
2 | Cc1cccc(C)c1OC(=O)C[N+]1(Cc2ccccc2)CCCCCC1 [Compound 83A, 1-benzyl-1-(2-(2,6-dimethylphenoxy)-2-oxoethyl) azepan-1-ium 2,2,2-trifluoroacetate] | 1 to 3 | 0.3 to 1 | –
3 | Cc1cccc(C)c1N1CCCC([N+]2(Cc3ccccc3)CCCCC2)C1=O (centres unmarked) [Compound 92A] | > 10 | 1 to 3 | –
4 | Br.CCCCOC(=O)C1CCC[N+](CC(=O)Nc2c(C)cccc2C)(Cc2ccccc2)C1 (centres unmarked) [Compound 49A] | 3 to 10 | 1 to 3 | + (“+” (<0.1 10^−6 cm/s))
5 | Cc1cccc(C)c1NC(=O)C[N+]1(Cc2ccccc2)CCCC(C(=O)NCC(C)C)C1.[Br-] (centres unmarked) [Compound 58A] | 3 to 10 | 1 to 3 | + (“+” (<0.1 10^−6 cm/s))
6 | CCC(C(=O)Nc1c(C)cccc1C)[N+]1(Cc2ccccc2)CCCCC1 (centres unmarked) [Compound 6] | > 10 | 0.3 to 1 | –
7 | CC[N+](CC)(CCS(=O)(=O)c1c(C)cccc1C)Cc1ccccc1 [Compound 87A, N-benzyl-2-((2,6-dimethylphenyl)sulfonyl)-N, N-diethylethan-1-aminium bromide] | > 10 | 3 to 10 | –
8 | Cc1cccc(C)c1NC(=O)C[N+]1(Cc2ccccc2)CCCCC1 [Compound 4] | > 10 | 0.3 to 1 | –
9 | Cc1cccc(C(=O)N(C)C)c1NC(=O)C[N+]1(Cc2ccccc2)CCCCCC1.[Br-] [Compound 78A] | – | 3 to 10 | + (“+” (<0.1 10^−6 cm/s))
10 | Cc1cccc(C)c1S(=O)(=O)CC[N+]1(Cc2ccccc2)CCCCCC1 [Compound 88A, 1-benzyl-1-(2-((2,6-dimethylphenyl)sulfonyl)ethyl) azepan-1-ium bromide] | > 10 | 3 to 10 | –
11 | Cc1cccc(O)c1NC(=O)C[N+]1(Cc2ccccc2)CCCCCC1.[Br-] [Compound 79A, 1-benzyl-1-(2-((2-hydroxy-6-methylphenyl)amino)-2-oxoethyl) azepan-1-ium formate] | – | 1 to 3 | + (“+” (<0.1 10^−6 cm/s))
12 | Cc1cccc(C)c1NC(=O)C[N+]1(Cc2ccccc2)CCCC(C(=O)N2CCCCCC2)C1 (centres unmarked) [Compound 64A] | 3 to 10 | 1 to 3 | + (“+” (<0.1 10^−6 cm/s))
13 | Cc1cccc(C)c1NCC[N+]1(Cc2ccccc2)CCCCCC1 [Compound 84A, 1-benzyl-1-(2-((2,6-dimethylphenyl)amino)ethyl) azepan-1-ium trifluoroacetate] | – | 3 to 10 | + (“+” (<0.1 10^−6 cm/s))
14 | Cc1cccc(C)c1NC(=O)C[N+]1(Cc2ccccc2)CCCC(C(=O)OC2CCCCC2)C1.[Br-] (centres unmarked) [Compound 51A] | 3 to 10 | 3 to 10 | + (“+” (<0.1 10^−6 cm/s))
